The nature of data set [1]: Fluorescence lifetimes by TCSPC. Format: physicochemical. As to conditions: for t (fluorescence lifetime), parent fluorophore: 20 mM buffer HEPES, pH 7.4; for t (fluorescence lifetime), P12-Complex: TCSPC. How it is done:
(§1) Absorption and fluorescence spectra were measured with a UVIKON 943 Double Beam UV/Vis absorption spectrophotometer and with a Perkin Elmer LS50B fluorescence spectrophotometer, respectively. Lifetime measurements were made by TCSPC in a Horiba Jobin Yvon IBH Fluorescence Lifetime Spectrometer System. The excitation source at 495 nm was a NanoLED N-01 Aqua and the detection module was TBX-04-A. Irradiation was carried out using a Superlite SUV-DC-P system incorporating a 200W DC Super-Pressure short arc lamp coupled to a light guide for high UV transmission and an electronic timer for exposure time control (Lumatec GmbH,
The fluorescence lifetimes of the complexes obtained as described in section 3.1, were determined by TCSPC. The corresponding values for each parent fluorescein were also determined in 20 mM buffer HEPES, pH 7.4 for comparison.

A short description of data set [2]: Critical Förster distances of donor-acceptor combinations. Type of data set: physicochemical. From the text:
F2F1AsH and F4F1AsH have a very favorable spectral overlap, leading to a large J (the overlap integral) and thus an R0 of 5.4 nm, greater than any of the values obtained with the other combinations of donors and acceptors based on biarsenical dyes. For example the F1ASH-ReAsH pair has an R0 of 3.9 nm. Thus, the new F2F1AsH-F4F1AsH probes constitute a new donor acceptor pair extending the dynamic range for heteroFRET in studies of living cells by 40%. They also provide new possibilities in combination with other FRET donors and acceptors within and outside the biarsenical family.

Data set [3] in a line: Photostability (photobleaching under mercury arc lamp irradiation). Type of data set: physicochemical. The note with it: complexes with P12. As to the method:
FIG. 2 illustrates a graph illustrations photobleaching of F2F1AsH-P12 (◯), F4F1AsH-P12 (□) and F1AsH-P12 (+). Full lines correspond to exponential fits. Complexes of the three dyes (10 μM) were irradiated with a mercury arc lamp through a 490-560 nm filter with an irradiance of 70 mW/cm^2;
as §1
Samples containing 10 μM of the biarsenical compounds and 10 μM of the model peptide P12, were incubated at room temperature for 1 h. Each solution of the F1AsH-peptide complex was irradiated for 120 min as previously described (see General Procedures).
Values of κbl were calculated from the monoexponential fitting of the experimental photobleaching decay, according to the model described in (Eq. 1) for the intermediate irradieation regime.^13
where τ(s) is the lifetime, Ψ is the irradiance (photons cm^−2 s^−1) and σ is the molecular absorption cross-section (cm^2 molecules^−1). Inasmuch as a broad excitation bandwidth was used, σ was computed as a mean value over the spectral distribution function of photon flux and corrected by the spectral integral with the corresponding absorption spectra, including the irradiation source and filter.

The subject of data set [4] is model target peptide P12 (FLNCCPGCCMEP). Put plainly: In vitro labeling of model peptide P12; absorption and emission spectra of biarsenical-P12 complexes. Format: physicochemical. How it is done:
as §1
To a solution of the biarsenical compound in buffer HEPES 20 mM, 1 mM 2-ME, pH 7.4, at a concentration of 0.1 μM and with a slight excess of EDT, was added the model target peptide P12 ([…]) to a final concentration of 1 μM from a stock solution in the same buffer and treated with 10 mM TCEP to reduce any disulfide bond. Emission spectra were taken after two hours of formation of the complex. FIG. 4 depicts the emision spectra of the F2F1AsH, F4F1AsH and F1AsH at equal concentration, with excitation at 490 nm. A 4-fold enhanced fluorescence emission of F2F1AsH compared to F1AsH can be observed.

The conditions of data set [5]: approximate value from ref 8; cited from earlier work.

SMILES strings stand for the structures. Like-named read-outs stand apart in the source and are kept apart here.

On to `O=C1OC2(c3cc(F)c(O)cc3Oc3cc(O)c(F)cc32)c2ccccc21` [2′,7′-difluorofluorescein], for which, in data set [1], the “t (fluorescence lifetime), parent fluorophore” value came to 4.02 ns.
As for `O=C1OC2(c3ccc(O)cc3Oc3cc(O)ccc32)c2c(F)c(F)c(F)c(F)c21` [3,4,5,6-tetrafluorofluorescein], in data set [1], the “t (fluorescence lifetime), parent fluorophore” value is 4.13 ns.
`O=C1OC2(c3ccccc31)c1cc(F)c(O)c([As]3SCCS3)c1Oc1c2cc(F)c(O)c1[As]1SCCS1` [F2FlAsH, 4′,5′-Bis(1,2,3-dithioarsolan-2-yl)-2′,7′-difluorofluorescein]: in data set [2] (acceptor F2FlAsH), the “10^13 · J (overlap integral)” value amounted to 1.37 and the Ro was 5.2 nm. For the same molecule, in data set [2] (acceptor F4FlAsH), the “10^13 · J (overlap integral)” value was 1.58 and the Ro was determined as 5.4 nm. For the same molecule, in data set [2] (acceptor FlAsH), the “10^14 · J (overlap integral)” value was found to be 6.41 and the Ro amounted to 4.1 nm. Also, in data set [2] (acceptor ReAsH), the “10^14 · J (overlap integral)” value is recorded as 3.44 and the Ro was 4.1 nm. For the same molecule, the “wavelength of fluorescence maximum” value in data set [3] is listed as 516 nm. In data set [4], the “shift of absorption maximum to the blue compared to FlAsH” value was 11 nm. In data set [4] (P12 complex), the “emission quantum yield relative to FlAsH complex” value is 2 × and the “extinction coefficient at 490 nm relative to FlAsH complex” value was determined as 2 ×. Moreover, in data set [4] (P12 complex, λexc 490 nm, λem 525 nm), the “fluorescence intensity relative to complex with parent FlAsH” value was 4 fold. In data set [4] (biarsenical-P12 complex), this molecule yielded a λem of 522 nm. Moreover, in data set [4] (complex with P12), the Stokes shift was determined as 22 nm and the “Stokes shift, greater than that of the FlAsH complex by” value turned out to be 7 nm. In addition, the “t (fluorescence lifetime), P12-Complex” value in data set [1] is 4.78 ns.
Consider `O=C1OC2(c3ccc(O)c([As]4SCCS4)c3Oc3c2ccc(O)c3[As]2SCCS2)c2c(F)c(F)c(F)c(F)c21` [F4FlAsH, 4′,5′-Bis(1,2,3-dithioarsolan-2-yl)-3,4,5,6-tetrafluorofluorescein], for which the “Φd, emission quantum yield of donor” value in data set [2] is on record as 0.4. Besides, in data set [2] (acceptor F4FlAsH), the “10^13 · J (overlap integral)” value was 1.17 and the Ro worked out at 4.5 nm. In addition, in data set [2] (acceptor ReAsH), the “10^14 · J (overlap integral)” value was found to be 6.45 and the Ro stood at 4.1 nm. Besides, the “wavelength of fluorescence maximum” value in data set [3] is reported as 538 nm. Besides, the “displacement of absorption maximum to the red compared to FlAsH” value in data set [4] was 17 mn. Further, in data set [1], the “t (fluorescence lifetime), P12-Complex” value is 5.18 ns.
Consider `O=C1OC2(c3ccccc31)c1ccc(O)c([As]3SCCS3)c1Oc1c2ccc(O)c1[As]1SCCS1` [FlAsH, 4′,5′-Bis(1,2,3-dithioarsolan-2-yl)-fluorescein, reference compound], for which, in data set [2] (acceptor F4FlAsH), the “10^13 · J (overlap integral)” value is given as 1.48 and the Ro is 4.7 nm. Besides, in data set [2] (acceptor ReAsH), the “10^14 · J (overlap integral)” value is reported as 5.03 and the Ro was 3.9 nm. Also, the “wavelength of fluorescence maximum” value in data set [3] stood at 519.5 nm. The “t (fluorescence lifetime), P12-Complex” value in data set [1] amounted to 4.88 ns. Further, the “τ (fluorescence lifetime)” value in data set [1] (biarsenical-P12 complex) was 4.88 ns. The “Φd, emission quantum yield of donor” value in data set [5] was ~0.4.
